Data taken from patent US6169181A, “Compounds useful to treat retroviral infections” (Pharmacia & Upjohn Company, priority 1998, dated 2001).
“And” between values parts separate entries of the source, which are not always exact repeats. Equal values may be shown once.

How the values were obtained:
HIV-1 protease = HIV-1 protease (Human immunodeficiency virus type 1 group M subtype B, UniProt P04585); test: biochemical; details: Table II, enzyme HIV-1
How it was run: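 A substrate biotinylated at the N-terminal arginine and FITC-labelled at the C-terminal lysine was incubated with HIV-1 protease (10 μl of 0.1 μM) and compound for 1 h in the dark at room temperature. Buffer was 0.1 M sodium acetate pH 5.5, 1.0 M NaCl, 0.05% NP-40. Labelled product was separated from substrate using streptavidin beads and filtration, and the fluorescence gave percent inhibition.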

[1] = molecular target: T1, single chain tethered (tandem) HIV protease (HIV-1 M:B_HXB2R, UniProt P04585); test: Tandem HIV protease assay; format: biochemical; details: read-out: FITC KI; Table II; enzyme HIV1TANDEM
T1 construct: purified enzyme, FITC/biotin substrate assay
Description: In the enzyme inhibition assay described above, the sensitivity of Ki value determination is in part limited by the ability to continue to lower the enzyme concentration for compounds with high binding affinity. To prevent de-dimerization at low enzyme concentration, a tandemly linked enzyme is prepared in which the two monomers are covalently linked by an appropriate stretch of amino acid residues. Using the latter enzyme, the sensitivity of the inhibition assay is improved since much lower enzyme concentration can be utilized, as compared to the condition using the wild-type enzyme.
The starting inhibitor concentrations are determined based on preliminary enzyme inhibition screening results which estimate the expected potency of the inhibitor. Inhibitor concentrations are then prepared using the Biomek 1000 (Beckman) and the Quadra 96 (Tomtec). Substrate (biotinylated at the amino terminal arginine and fluorescently labeled with fluorescein at the carboxyl terminal lysine), inhibitor and the tandem enzyme are allowed to react in solution at pH 5.5 (buffers identical to those used with the native dimeric enzyme) in the dark for 96 hours. Streptavidin coated polystyrene beads are added to stop the reaction. The labeled cleavage product is separated from unreacted substrate via filtration. Residual fluorescence is quantitated with the Idexx SM2000 (Idexx) and the resulting data are analyzed using the NLLSF program.

## CCC(C1=C(O)CC(CCc2ccccc2)(CCc2ccccc2)OC1=O)c1cccc(NS(=O)(=O)c2ccc(C#N)cn2)c1 (stereo not drawn) [Example 331, N-[3-{1-(4-Hydroxy-5,6-dihydro-2-oxo-6,6-bis(2-phenylethyl)-2H-pyran-3-yl)propyl}phenyl]-5-cyanopyridine-2-sulfonamide]
HIV-1 protease; DOSE 0.123 (unit not given)
  PROTEASE % INHIB.: 99.76%
HIV-1 protease; DOSE 0.370 (unit not given)
  PROTEASE % INHIB.: 104.06%
HIV-1 protease; DOSE 1.100 (unit not given)
  PROTEASE % INHIB.: 108.51%
HIV-1 protease; DOSE 3.300 (unit not given)
  PROTEASE % INHIB.: 99.3%
HIV-1 protease; DOSE 10.000 (unit not given)
  PROTEASE % INHIB.: 103.28%
HIV-1 protease; DOSE 30.000 (unit not given)
  PROTEASE % INHIB.: 93.3%
[1]
  Ki: 0.272 nM

## CCCC1(CCc2ccccc2)CC(O)=C(C(c2cccc(NS(=O)(=O)c3cn(C)cn3)c2)C(C)(C)C)C(=O)O1 (single isomer, unassigned) [Example 307, N-[3(R or S)-[1-(5,6-Dihydro-4-hydroxy-2-oxo-6(R or S)-[2-phenylethyl]-6-propyl-2H-pyran-3-yl)-2,2-dimethylopropyl]phenyl]-1-methyl-1H-imidazole-4-sulfonamide]
HIV-1 protease; DOSE 0.123 (unit not given)
  PROTEASE % INHIB.: 77.39%
HIV-1 protease; DOSE 0.370 (unit not given)
  PROTEASE % INHIB.: 99.85%
HIV-1 protease; DOSE 1.100 (unit not given)
  PROTEASE % INHIB.: 107.87%
HIV-1 protease; DOSE 3.300 (unit not given)
  PROTEASE % INHIB.: 93.34%
HIV-1 protease; DOSE 10.000 (unit not given)
  PROTEASE % INHIB.: 83.49%
HIV-1 protease; DOSE 30.000 (unit not given)
  PROTEASE % INHIB.: 69.74%
[1]
  Ki: 0.072 nM

## Cn1cnc(S(=O)(=O)Nc2cccc(C(C3=C(O)CC(CCc4ccccc4)(CCC(F)(F)F)OC3=O)C(C)(C)C)c2)c1 (single isomer, unassigned) [Example 270, N-[3-(R or S)-[1-[5,6-dihydro-4-hydroxy-2-oxo-6-(R or S)-(2-phenethyl)-6-(3,3,3-trifluoropropyl)-2H-pyran-3-yl]-2,2-dimethylpropyl]phenyl]-1-methyl-1H-imidazole-4-sulfonamide]
HIV-1 protease; DOSE 0.123 (unit not given)
  PROTEASE % INHIB.: 75.26%
HIV-1 protease; DOSE 0.370 (unit not given)
  PROTEASE % INHIB.: 85.62%
HIV-1 protease; DOSE 1.100 (unit not given)
  PROTEASE % INHIB.: 93.45%
HIV-1 protease; DOSE 3.300 (unit not given)
  PROTEASE % INHIB.: 96.62%
HIV-1 protease; DOSE 10.000 (unit not given)
  PROTEASE % INHIB.: 94.57%
HIV-1 protease; DOSE 30.000 (unit not given)
  PROTEASE % INHIB.: 82.67%
[1]
  Ki: 0.024 nM

## CCC(C1=C(O)CC(CCc2ccccc2)(CCc2ccccc2)OC1=O)c1cccc(NS(=O)(=O)c2cc(C(F)(F)F)ccn2)c1 (single isomer, unassigned) [Example 290, 4-Trifluoromethyl-N-[3-(R or S)-[1-[4-hydroxy-2-oxo-6,6-di-phenethyl-5,6-dihydro-2H-pyran-3-yl]-propyl]-phenyl]-2-pyridinesulfonamide]
[1]
  Ki: 1.88 nM

## CC(C)(C)C(C1=C(O)CC(CCc2ccccc2)(CCC(F)(F)F)OC1=O)c1cccc(NS(=O)(=O)c2ccc(C#N)cn2)c1 (single isomer, unassigned) [Example 272, 5-cyano-N-[3-(R or S)-[1-[5,6-dihydro-4-hydroxy-2-oxo-6-(2-phenethyl)-6-(R or S)-(3,3,3-trifluoropropyl)-2H-pyran-3-yl]-2,2-dimethylpropyl]phenyl]-2-pyridinesulfonamide]
[1]
  Ki: 3.6 nM

## CCC[C@@]1(CCc2ccccc2)CC(O)=C([C@@H](c2cccc(NS(=O)(=O)c3ccc(C#N)cn3)c2)C(C)(C)C)C(=O)O1 (single isomer, unassigned) [Example 302, 5-Cyano-N-[3(R or S)-(1-[5,6-dihydro-4-hydroxy-2-oxo-6(R or S)-(2-phenylethyl)-6-propyl-2H-pyran-3-yl]-2,2-dimethylpropyl)-phenyl]-2-pyridinesulfonamide]
[1]
  Ki: 1.87 nM and 3.6 nM

## CCCC1(CCC)CC(O)=C(C(CC)c2cccc(NS(=O)(=O)c3ccc(N)cn3)c2)C(=O)O1 (single isomer, unassigned) [Example 363, N-[3-{1(R or S)-(4-Hydroxy-5,6-dihydro-2-oxo-6,6-dipropyl-2H-pyran-3-yl)-propyl}phenyl]-5-aminopyridine-2-sulfonamide]
[1]
  Ki: 0.083 nM

## CC(C)(C)C(C1=C(O)CC(CCc2ccccc2)(CCC(F)(F)F)OC1=O)c1cccc(NS(=O)(=O)c2ccc(C#N)cn2)c1 (single isomer, unassigned) [Example 266, 5-cyano-N-[3-(R or S)-[1-[5,6-dihydro-4-hydroxy-2-oxo-6-(2-phenethyl)-6-(R or S)-(3,3,3-trifluoropropyl)-2H-pyran-3-yl]-2,2-dimethylpropyl]phenyl]-2-pyridinesulfonamide]
[1]
  Ki: 0.033 nM

## CCC(C1=C(O)CC(CCc2ccccc2)(CCc2ccccc2)OC1=O)c1cccc(NS(=O)(=O)c2cn(C)cn2)c1 (single isomer, unassigned) [Example 324, N-[3(R or S)-(1-[6,6-Bis(2-phenyl-ethyl)-5,6-dihydro-4-hydroxy-2-oxo-2H-pyran-3-yl]propyl)phenyl]-1-methyl-1H-imidazole-4-sulfonamide]
[1]
  Ki: 0.156 nM

## CCC(C1=C(O)CC(CCc2ccccc2)(CCc2ccccc2)OC1=O)c1cccc(NS(=O)(=O)c2ccc(C(F)(F)F)cn2)c1 (single isomer, unassigned) [Example 287, 5-Trifluoromethyl-N-[3-(R or S)-[1-[4-hydroxy-2-oxo-6,6-di-phenethyl-5,6-dihydro-2H-pyran-3-yl]-propyl]-phenyl]-2-pyridinesulfonamide]
[1]
  Ki: 0.038 nM

## CCC(C1=C(O)CC(CCc2ccccc2)(CCc2ccccc2)OC1=O)c1cccc(NS(=O)(=O)c2ccc(C#N)cn2)c1 (single isomer, unassigned) [Example 326, N-[3(R or S)-(1-[6,6-Bis(2-phenyl-ethyl)-5,6-dihydro-4-hydroxy-2-oxo-2H-pyran-3-yl]propyl)phenyl]-5-cyano-2-pyridinesulfonamide]
[1]
  Ki: 0.029 nM

## CC(C)(C)C(C1=C(O)CC(CCc2ccccc2)(CCc2ccccc2)OC1=O)c1cccc(NS(=O)(=O)c2ccc(C#N)cn2)c1 (single isomer, unassigned) [Example 359, N-[3-{1(R or S)-(4-Hydroxy-5,6-dihydro-2-oxo-6,6-bis(2-phenylethyl)-2H-pyran-3-yl)-2,2-dimethylpropyl}phenyl]-5-cyanopyridine-2-sulfonamide]
[1]
  Ki: 16.4 nM

## CCC[C@@]1(CCc2ccc(F)cc2)CC(O)=C([C@H](CC)c2cccc(NS(=O)(=O)c3cn(C)cn3)c2)C(=O)O1 (single isomer, unassigned) [Example 368, N-[3-{1(R or S)-(4-Hydroxy-5,6-dihydro-2-oxo-6(R or S)-(2-(4-fluorophenyl)ethyl)-6-propyl-2H-pyran-3-yl)propyl}phenyl]-1-methyl-1H-imidazole-4-sulfonamide]
[1]
  Ki: 0.232 nM

## Cn1cnc(S(=O)(=O)Nc2cccc(C(C3=C(O)CC(CCc4ccccc4)(CCc4ccccc4)OC3=O)C(C)(C)C)c2)c1 (single isomer, unassigned) [Example 357, N-[3-{1(R or S)-(4-Hydroxy-5,6-dihydro-2-oxo-6,6-bis(2-phenylethyl)-2H-pyran-3-yl)-2,2-dimethylpropyl}phenyl]-1-methyl-1H-imidazole-4-sulfonamide]
[1]
  Ki: 48.5 nM

## CCC(C1=C(O)CC(CCc2ccccc2)(CCc2ccccc2)OC1=O)c1cccc(NS(=O)(=O)c2cc(C(F)(F)F)ccn2)c1 (single isomer, unassigned) [Example 289, 4-Trifluoromethyl-N-[3-(R or S)-[1-[4-hydroxy-2-oxo-6,6-di-phenethyl-5,6-dihydro-2H-pyran-3-yl]-propyl]-phenyl]-2-pyridinesulfonamide]
[1]
  Ki: 0.133 nM
